target: T1, RORγ (Homo sapiens, UniProt P51449); assay: RORγ GAL4 reporter gene assay (luciferase readout, 293FT cells); type: cell-based; conditions: inhibition of RORγ (GAL4-RORγ-LBD) luciferase signal in transfected 293FT cells, overnight incubation; read-out: mean pIC50 (converted)
T1 construct: expressed in transfected cells; host or cells: 293FT cells (Invitrogen), expression vector pFN26A (Promega)
T1 sequence (P51449 269-508 limits assumed): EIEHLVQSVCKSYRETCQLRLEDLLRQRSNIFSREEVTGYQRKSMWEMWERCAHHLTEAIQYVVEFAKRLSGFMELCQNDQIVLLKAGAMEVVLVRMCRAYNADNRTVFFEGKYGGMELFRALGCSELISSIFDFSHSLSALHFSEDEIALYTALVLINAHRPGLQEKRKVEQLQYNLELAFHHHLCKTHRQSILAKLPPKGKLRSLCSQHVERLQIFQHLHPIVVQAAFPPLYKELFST
Protocol: Example inhibitors 1-45 were tested for their ability to inhibit RORγ activity in a RORγ GAL4 reporter gene assay.
The RORγ ligand-binding domain (LBD) was fused to the yeast GAL4 DNA binding domain (DBD) and placed under the control of the human cytomegalovirus (CMV) immediate early promoter, using expression vector pFN26A (Promega) and standard recombinant DNA cloning methods.
To monitor the inhibitory effect of compounds on RORγ, a transcriptional reporter construct was used. The pGL4.35 vector (Promega) contains nine copies of the GAL4 Upstream Activator Sequence (UAS). This sequence drives the transcription of the luciferase reporter gene luc2P in response to binding of a fusion protein containing the GAL4 DNA binding domain, as for example expressed by the GAL4-RORγ-LBD and GAL4-VP16 expression vectors described above.
The day after transfection, cells were plated into 96 well plates, test compound was added and the plates were incubated overnight. Subsequently, the firefly luciferase activity was quantified using luciferase detection reagent and luminescence readout.
1500 μL of this reagent mixture was added to 5 μg of GAL4 fusion protein expression vector and 5 μg of the transcriptional reporter construct, and incubated at RT for 20 minutes.
Subsequently, the cells were washed with Phosphate Buffered Saline (PBS) (Lonza), after which the PBS was removed. To dissociate the cells, 1 ml of TrypLE Express (Invitrogen) was added to the flask, followed by incubation at RT until the cells visually started to detach. Cells were collected in 5 mL of assay medium (DMEM culture medium (Lonza), 10% dialyzed FBS (Invitrogen) and Pen/Strep (Lonza)) to achieve a single cell suspension. 10×10^6 cells were spun down and re-suspended in 10 mL of assay medium.
For compound screening, the cells were harvested (as described above) and counted. […] 80 μL of cell suspension (60,000 cells) was plated per well into a white, flat bottom, tissue culture treated, 96 well screening plates (Greiner).
Subsequently, these solutions were diluted to 5× the final test concentration in two 10-fold-dilution steps in assay medium. The final DMSO concentration of the 5× test compound solution was 1%. 20 μL of the 5× test compound solution was added to each test well of the 96 well plate previously plated with 80 μl cell suspension, resulting in the final test concentration with 0.2% DMSO.
For the luciferase readout, the luciferase reagent (Britelite Plus, Perkin Elmer) was brought to RT. To each test well of the screening plates, 100 μL of 2.5-fold diluted Britelite Plus reagent was added, followed by incubation at RT for 10 minutes. The luciferase luminescence signal was measured using a Wallac Victor Microplate Reader (Perkin Elmer).

| Compound | IC50 [nM] |
| --- | --- |
| CCCN(Cc1ccccc1)C(=O)c1ccc(NC(=O)Cc2ccc(S(=O)(=O)CC)cc2)cc1 [Example 25, N-benzyl-4-{2-[4-(ethanesulfonyl)phenyl]acetamido}-N-propylbenzamide] | ≤ 100 |
| CCN(C(=O)c1ccc(NC(=O)Cc2ccc(S(=O)(=O)CC)cc2)cc1)c1ccccc1 [Example 34, 4-{2-[4-(ethanesulfonyl)phenyl]acetamido}-N-ethyl-N-phenylbenzamide] | ≤ 10 |
| CCS(=O)(=O)c1ccc(CC(=O)Nc2ccc(C(=O)N(C)c3ccccc3)cc2)cc1 [Example 30, 4-{2-[4-(ethanesulfonyl)phenyl]acetamido}-N-methyl-N-phenylbenzamide] | ≤ 100 |
| CCS(=O)(=O)c1ccc(CC(=O)Nc2ccc(C(=O)N(c3ccccn3)C3CCC3)cc2)cc1 [Example 41, N-cyclobutyl-4-{2-[4-(ethanesulfonyl)phenyl]acetamido}-N-(pyridin-2-yl)benzamide] | ≤ 1000 |
| CCN(C(=O)c1ccc(NC(=O)Cc2ccc(S(=O)(=O)CC)cc2)cc1)c1cc(C)nn1C [Example 2, N-(1,3-dimethyl-1H-pyrazol-5-yl)-4-{2-[4-(ethanesulfonyl)phenyl]acetamido}-N-ethylbenzamide] | ≤ 100 |
| CCS(=O)(=O)c1ccc(CC(=O)Nc2ccc(C(=O)N(C)Cc3ccco3)cc2)cc1 [Example 37, 4-{2-[4-(ethanesulfonyl)phenyl]acetamido}-N-(furan-2-ylmethyl)-N-methylbenzamide] | ≤ 1000 |
| CCN(C(=O)c1ccc(NC(=O)Cc2ccc(S(=O)(=O)CC)cc2)nc1)c1ccccc1 [Example 24, 6-{2-[4-(ethanesulfonyl)phenyl]acetamido}-N-ethyl-N-phenylpyridine-3-carboxamide] | ≤ 1000 |
| CCS(=O)(=O)c1ccc(CC(=O)Nc2ccc(C(=O)N(c3ccccc3)C(C)(C)C3CCCO3)cc2)cc1 (centres unmarked) [Example 18, 4-{2-[4-(ethanesulfonyl)phenyl]acetamido}-N-[2-(oxolan-2-yl)propan-2-yl]-N-phenylbenzamide] | ≤ 10 |
| CCS(=O)(=O)c1ccc(CC(=O)Nc2ccc(C(=O)N(Cc3ccccc3)Cc3ccccc3)cc2)cc1 [Example 38, N,N-dibenzyl-4-{2-[4-(ethanesulfonyl)phenyl]acetamido}benzamide] | ≤ 100 |
| CCS(=O)(=O)c1ccc(CC(=O)Nc2ccc(C(=O)N(c3ccccc3)C(C)(C)C)cc2)cn1 [Example 44, N-tert-butyl-4-{2-[6-(ethanesulfonyl)pyridin-3-yl]acetamido}-N-phenylbenzamide] | ≤ 100 |
| CCS(=O)(=O)c1ccc(CC(=O)Nc2ccc(C(=O)N3CCCC3c3ccccc3)cc2)cc1 (centres unmarked) [Example 29, 2-[4-(ethanesulfonyl)phenyl]-N-[4-(2-phenylpyrrolidine-1-carbonyl)phenyl]acetamide] | ≤ 1000 |
| CCS(=O)(=O)c1ccc(CC(=O)Nc2ccc(C(=O)N(c3ccccn3)C3CC3)cc2)cc1 [Example 40, N-cyclopropyl-4-{2-[4-(ethanesulfonyl)phenyl]acetamido}-N-(pyridin-2-yl)benzamide] | ≤ 1000 |
| CCN(C(=O)c1ccc(NC(=O)Cc2ccc(S(=O)(=O)CC)cc2)cc1)c1cccnc1 [Example 32, 4-{2-[4-(ethanesulfonyl)phenyl]acetamido}-N-ethyl-N-(pyridin-3-yl)benzamide] | ≤ 1000 |
| CCN(C(=O)c1ccc(NC(=O)Cc2ccc(S(=O)(=O)CC)cc2)cc1)c1cc(C)no1 [Example 3, 4-{2-[4-(ethanesulfonyl)phenyl]acetamido}-N-ethyl-N-(3-methyl-1,2-oxazol-5-yl)benzamide] | ≤ 100 |
| CCCN(CC1CC1)C(=O)c1ccc(NC(=O)Cc2ccc(S(=O)(=O)CC)cc2)cc1 [Example 27, N-(cyclopropylmethyl)-4-{2-[4-(ethanesulfonyl)phenyl]acetamido}-N-propylbenzamide] | ≤ 1000 |
| CCS(=O)(=O)c1ccc(CC(=O)Nc2ccc(C(=O)N(C)c3ccccn3)cc2)cc1 [Example 23, 4-{2-[4-(ethanesulfonyl)phenyl]acetamido}-N-methyl-N-(pyridin-2-yl)benzamide] | ≤ 1000 |
| CCS(=O)(=O)c1ccc(CC(=O)Nc2ccc(C(=O)N(C)c3cc(C)on3)cc2)cc1 [Example 1, 4-{2-[4-(ethanesulfonyl)phenyl]acetamido}-N-methyl-N-(5-methyl-1,2-oxazol-3-yl)benzamide] | ≤ 1000 |
| CCCN(C(=O)c1ccc(NC(=O)Cc2ccc(S(=O)(=O)CC)cc2)cc1)c1cccnc1 [Example 31, 4-{2-[4-(ethanesulfonyl)phenyl]acetamido}-N-propyl-N-(pyridin-3-yl)benzamide] | ≤ 100 |
| CCS(=O)(=O)c1ccc(CC(=O)Nc2ccc(C(=O)N3CCCc4ccccc43)cc2)cc1 [Example 28, 2-[4-(ethanesulfonyl)phenyl]-N-[4-(1,2,3,4-tetrahydroquinoline-1-carbonyl)phenyl]acetamide] | ≤ 100 |
| CCS(=O)(=O)c1ccc(CC(=O)Nc2ccc(C(=O)N(C)Cc3ccccc3)cc2)cc1 [Example 26, N-benzyl-4-{2-[4-(ethanesulfonyl)phenyl]acetamido}-N-methylbenzamide] | ≤ 1000 |
| CCN(C(=O)c1ccc(NC(=O)Cc2ccc(S(=O)(=O)CC)nc2)cc1F)c1ccccc1 [Example 43, 4-{2-[6-(ethanesulfonyl)pyridin-3-yl]acetamido}-N-ethyl-2-fluoro-N-phenylbenzamide] | ≤ 1000 |
| CCS(=O)(=O)c1ccc(CC(=O)Nc2ccc(C(=O)N(c3ccc(C)cc3)C(C)(C)CO)cc2)cc1 [Example 42, 4-{2-[4-(ethanesulfonyl)phenyl]acetamido}-N-(1-hydroxy-2-methylpropan-2-yl)-N-(4-methylphenyl)benzamide] | ≤ 100 |
| CCS(=O)(=O)c1ccc(CC(=O)Nc2ccc(C(=O)N3CCCCC3c3ccccc3)cc2)cc1 (centres unmarked) [Example 33, 2-[4-(ethanesulfonyl)phenyl]-N-[4-(2-phenylpiperidine-1-carbonyl)phenyl]acetamide] | ≤ 100 |
| CCS(=O)(=O)c1ccc(CC(=O)Nc2ccc(C(=O)N(C3CCC3)C3CCC3)cc2)cc1 [Example 35, N, N-dicyclobutyl-4-{2-[4-(ethanesulfonyl)phenyl]acetamido}benzamide] | ≤ 1000 |

test system: IL-17A production in anti-CD3/anti-CD28 stimulated peripheral blood mononuclear cells (PBMCs); assay: Peripheral blood mononuclear cell (PBMC) IL-17 assay; conditions: Homo sapiens, 120 h, read-out:
Protocol: This assay is designed to measure the levels of IL-17A secreted from anti-CD3/anti-CD28 stimulated PBMCs with the aim of measuring RORγ mediated inhibition of IL-17A production.
The assay medium consists of 90% RPMI 1640 (Lonza), 10% heat inactivated fetal bovin serum (FBS, Lonza) and 100 U/mL penicillin/streptomycin solution.
Anti-CD3 antibody (BD Pharmingen) was diluted to 10 μg/ml in PBS (Lonza). 30 μL of 10 μg/ml anti-CD3 solution was added to the inner 60 wells, excluding any negative control wells, of a 96-well cell culture treated U-bottom plate (Greiner). Plates were incubated overnight (16-24 hours) at 37° C. and 5% CO2.
Peripheral blood mononuclear cells were separated from buffy coats (Sanquin) using Ficoll-Paque PREMIUM separation medium (GE Healthcare Life Sciences) according to manufacturer's protocol and re-suspended in assay medium at 37° C.
Test compounds were diluted, starting from a 10 mM dimethylsulfoxide (DMSO) stock solution, to serial dilutions in DMSO at 200× the final test concentration. Subsequently, these solutions were diluted in two dilution steps in assay medium to 10× the final test concentration. The DMSO concentration of the 10× test compound solution was 5%.
Anti-CD28 antibody (BD Pharmingen) was diluted to 20 μg/mL in PBS.
For compound screening, the anti-CD3 coated plates were washed three times with PBS, the wells were subsequently aspirated using vacuum. To each screening well 80 μL of the PBMC suspension, 10 μL of the anti-CD28 solution and 10 μL of the 1 Ox test compound solution was added, resulting in the final test concentration with 0.5% DMSO. All outer wells were filled with assay medium to prevent evaporation. Plates were incubated for 5 days at 37° C. and 5% CO2.
After incubation the plates were spun down at 1500 rpm for 4 minutes and the supernatant was collected. Subsequently, the IL-17A levels in the supernatants was determined using an IL-17 ELISA kit (human IL-17 DuoSet, R&D systems) according to manufacturer's protocol.
The half maximum inhibitory concentration (IC50) values for the test compounds were calculated from the IL-17A signal using GraphPad Prism software (GraphPad Software).

| Compound | IC50 [nM] |
| --- | --- |
| CCN(C(=O)c1ccc(NC(=O)Cc2ccc(S(=O)(=O)CC)cc2)cc1)c1nc(C)c(C)s1 [Example 13, N-(4-methyl-5-methyl-1,3-thiazol-2-yl)-4-{2-[4-(ethanesulfonyl)phenyl]acetamido}-N-ethylbenzamide] | ≤ 100 |

same assay, conditions: Homo sapiens, 120 h, read-out: mean pIC50, inhibition of IL-17A secretion (ELISA), human PBMCs, anti-CD3/anti-CD28 stimulated, 5 days (converted)

| Compound | IC50 [nM] |
| --- | --- |
| CCCN(C(=O)c1ccc(NC(=O)Cc2ccc(S(=O)(=O)CC)cc2)cc1)c1cc(C)nn1C [Example 6, N-(1,3-dimethyl-1H-pyrazol-5-yl)-4-{2-[4-(ethanesulfonyl)phenyl]acetamido}-N-propylbenzamide] | ≤ 100 |
| CCN(C(=O)c1ccc(NC(=O)Cc2ccc(S(=O)(=O)CC)cc2)cc1)c1cc(C)nn1C [Example 2, N-(1,3-dimethyl-1H-pyrazol-5-yl)-4-{2-[4-(ethanesulfonyl)phenyl]acetamido}-N-ethylbenzamide] | ≤ 100 |
| CCS(=O)(=O)c1ccc(CC(=O)Nc2ccc(C(=O)N(c3ccccc3)C(C)(C)C3CCCO3)cc2)cc1 (centres unmarked) [Example 18, 4-{2-[4-(ethanesulfonyl)phenyl]acetamido}-N-[2-(oxolan-2-yl)propan-2-yl]-N-phenylbenzamide] | ≤ 100 |
| CCS(=O)(=O)c1ccc(CC(=O)Nc2ccc(C(=O)N(c3ccccc3)C(C)(C)C)cc2)cn1 [Example 44, N-tert-butyl-4-{2-[6-(ethanesulfonyl)pyridin-3-yl]acetamido}-N-phenylbenzamide] | ≤ 100 |
| CCS(=O)(=O)c1ccc(CC(=O)Nc2ccc(C(=O)N(c3ccc(C)cc3)C(C)(C)C3CCCO3)cc2)cc1 (centres unmarked) [Example 17, 4-{2-[4-(ethanesulfonyl)phenyl]acetamido}-N-(4-methylphenyl)-N-[2-(oxolan-2-yl)propan-2-yl]benzamide] | ≤ 100 |
| CCS(=O)(=O)c1ccc(CC(=O)Nc2ccc(C(=O)N(c3ccccc3)C3CC(F)(F)C3)cc2)cc1 [Example 21, N-(3,3-difluorocyclobutyl)-4-{2-[4-(ethanesulfonyl)phenyl]acetamido}-N-phenylbenzamide] | ≤ 100 |
| CCCN(C(=O)c1ccc(NC(=O)Cc2ccc(S(=O)(=O)CC)cc2)cc1)c1cc(C)on1 [Example 5, 4-{2-[4-(ethanesulfonyl)phenyl]acetamido}-N-(5-methyl-1,2-oxazol-3-yl)-N-propylbenzamide] | ≤ 100 |
